From PMC2956004 (Bioorganic & medicinal chemistry, 2010)

target: recombinant HCV NS5B (genotype 1b) NS5BCΔ21 (Hepatitis C virus genotype 1b, UniProt P26663); experiment: in vitro NS5B RNA dependent RNA polymerase; assay type: biochemical; details: Supplementary data, Table S1

SMILES	NS5B inhibitory activity (in words)
O=C(O)CN1C(=O)C(=Cc2ccccc2)SC1=S [2-(5-benzylidene-4-oxo-2-thioxothiazolidin-3-yl)acetic acid]	either inactive or poorly active
O=C(O)CN1C(=O)CSC1=S [2-(4-oxo-2-thioxothiazolidin-3-yl)acetic acid]	either inactive or poorly active
CCN1C(=O)C(=Cc2ccc(Cl)cc2Cl)SC1=S [5-(2,4-dichlorobenzylidene)-3-ethyl-2-thioxothiazolidin-4-one]	either inactive or poorly active
